Data published in patent publication US20190240187A1, “ORAL PREPARATIONS WITH OMEPRAZOLE OR PANTOPRAZOLE” (SYMRISE AG, priority 2015, published 2019).

Assay: Bitter masking test: aqueous omeprazole solutions tasted by a panel in duo comparison tests
Format: in vivo
Details: 500 ppm omeprazole; for Masking effect on the bitterness of omeprazole (in words): 100 ppm additive
Excerpt: To test the bitter masking effect, aqueous solutions, each containing 500 ppm omeprazole
(V1) alone or together (1) with 100 ppm eriodyctiol (ED) or (2) with 100 ppm homoeriodyctiol sodium salt (HE) or (3) with 100 ppm eriodyctiol+100 ppm homoeriodyctiol sodium salt or (V4) with 100 ppm 4′-fluoro-6-methoxyflavanone as a reference substance that has no masking effect, were tasted. Solutions 2-5 were each tasted by an experienced panel of 20-30 testers in a randomized order against solution 1 in duo comparison tests and the bitterness of each sample was estimated on a scale of 0 to 100.

Structure (SMILES) | Bitterness (mean panel estimate (20-30 testers) on a scale of 0 to 100, aqueous solution, additives 100 ppm each) | Masking effect on the bitterness of omeprazole (in words)
COc1ccc2[nH]c([S+]([O-])Cc3ncc(C)c(OC)c3C)nc2c1 (racemic) [Example V1, (RS)-5-methoxy-2-[(4-methoxy-3,5-dimethylpyridin-2-yl)methanesulfinyl]-1H-benzoinnidazole, reference compound] | 80 | –
O=C1CC(c2ccc(O)c(O)c2)Oc2cc(O)cc(O)c21 (stereo not drawn) [ED, 2-(3,4-dihydroxyphenyl)-5,7-dihydroxy-4-chronnanone] | – | act on their own as masking agents
COc1cc(C2CC(=O)c3c(O)cc(O)cc3O2)ccc1O (stereo not drawn) [HE, 5-7-dihydroxy-2-(4-hydroxy-3-methoxyphenyl)-4-chronnanone] | – | act on their own as masking agents
